Calls of active or inactive are those of the source. The calls are words filed in the database; no cut-off is given here.

Consider twelve compounds from ChEMBL document CHEMBL5370579, “Structure-based lead optimization to improve potency and selectivity of a novel tetrahydroimidazo[1,2-a]pyridine-5-carboxylic acid series of heparanase-1 inhibitor” (Bioorg Med Chem, 2023).

For one data set, the target named is T1, Beta-glucuronidase (Homo sapiens, UniProt P08236).
T1 sequence (P08236 whole entry): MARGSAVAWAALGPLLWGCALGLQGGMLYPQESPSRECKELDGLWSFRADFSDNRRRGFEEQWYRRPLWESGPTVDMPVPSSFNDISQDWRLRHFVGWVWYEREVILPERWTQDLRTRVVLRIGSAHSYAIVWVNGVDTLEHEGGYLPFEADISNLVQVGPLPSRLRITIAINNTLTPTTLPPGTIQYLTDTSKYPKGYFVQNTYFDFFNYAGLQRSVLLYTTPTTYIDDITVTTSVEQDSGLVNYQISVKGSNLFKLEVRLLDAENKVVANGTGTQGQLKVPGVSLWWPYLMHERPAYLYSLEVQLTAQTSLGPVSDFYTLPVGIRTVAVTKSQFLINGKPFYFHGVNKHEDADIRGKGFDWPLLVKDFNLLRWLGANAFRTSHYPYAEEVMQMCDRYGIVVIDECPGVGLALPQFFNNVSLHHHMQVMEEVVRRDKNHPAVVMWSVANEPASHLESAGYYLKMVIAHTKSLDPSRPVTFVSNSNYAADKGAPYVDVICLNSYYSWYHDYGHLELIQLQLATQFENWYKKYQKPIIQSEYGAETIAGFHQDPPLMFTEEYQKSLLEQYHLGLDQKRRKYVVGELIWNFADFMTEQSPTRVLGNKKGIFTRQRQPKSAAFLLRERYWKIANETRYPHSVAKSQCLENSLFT
In words: Inhibition of recombinant human GUSbeta using 4-MUG as substrate pre-incubated for 10 mins followed by substrate addition and measured after 60 mins by fluorescence based assay.

A short description of data set [1]: Inhibition of recombinant human GBA using 4-MUBDG as substrate pre-incubated for 10 mins followed by substrate addition and measured after 24 hrs by fluorescence based assay.
Data set [2] in a line: Drug concentration in C57BL/6J mouse plasma at 30 mg/kg, sc measured after 4 hrs by LC-MS/MS analysis. Type of data set: ADME, organism-based.
Data set [3] is described as follows: Drug concentration in C57BL/6J mouse plasma at 30 mg/kg, sc measured after 1 hrs by LC-MS/MS analysis. The format is ADME, organism-based.
A short description of data set [4]: Protein binding in C57BL/6J mouse serum at 1 ug/ml measured after 4 hrs by LC-MS/MS analysis. The format is ADME, cell-free. To be noted: at 1 µg/mL, read-out: PB (converted).
The target of a further data set is T2, Heparanase (Homo sapiens, UniProt Q9Y251).
T2 sequence (Q9Y251 whole entry): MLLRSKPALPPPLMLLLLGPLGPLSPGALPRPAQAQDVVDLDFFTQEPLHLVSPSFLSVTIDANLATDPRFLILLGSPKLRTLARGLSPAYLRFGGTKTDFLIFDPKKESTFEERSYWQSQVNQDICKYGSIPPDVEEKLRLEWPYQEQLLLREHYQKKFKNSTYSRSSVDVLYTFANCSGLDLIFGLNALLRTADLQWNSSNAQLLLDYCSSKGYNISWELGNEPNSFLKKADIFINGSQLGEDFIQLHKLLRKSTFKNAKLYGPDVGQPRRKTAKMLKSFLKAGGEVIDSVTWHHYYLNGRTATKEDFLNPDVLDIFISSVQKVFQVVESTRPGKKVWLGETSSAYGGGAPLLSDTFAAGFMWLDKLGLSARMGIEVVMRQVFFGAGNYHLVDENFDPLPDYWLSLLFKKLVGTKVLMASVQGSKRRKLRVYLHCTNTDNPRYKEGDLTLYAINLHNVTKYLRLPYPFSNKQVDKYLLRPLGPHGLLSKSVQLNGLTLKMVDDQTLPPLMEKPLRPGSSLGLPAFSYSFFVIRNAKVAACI
In words: Inhibition of recombinant human HPSE1 using biotinylated heparan sulfate-Eu cryptate as substrate pre-incubated for 10 mins followed by substrate addition and measured after 60 mins by fluorescence based HTRF assay.

Data set [5] can be described thus: Volume of distribution at steady state in C57BL/6J mouse at 0.5 mg/kg, iv measured after 0.083 to 24 hrs by LC-MS/MS analysis. The format is ADME, organism-based. The following applies: in vivo, time 0.083-24 hrs, read-out: Vdss.
A further data set relates to Mus musculus. In words: In vivo inhibition of HPSE1 in C57BL/6J mouse at 3 to 100 mg/kg, sc measured after 1 to 4 hrs. The format is functional, organism-based. The following applies: dose 3-100 mg/kg, time 1-4 hrs.
The nature of data set [6]: Half life in C57BL/6J mouse at 0.5 mg/kg, iv measured after 0.083 to 24 hrs by LC-MS/MS analysis. The format is ADME, organism-based. To be noted: in vivo, time 0.083-24 hrs.
Data set [7] in a line: Drug concentration in C57BL/6J mouse plasma at 100 mg/kg, sc measured after 1 hrs by LC-MS/MS analysis. The format is ADME, organism-based.
Data set [8] in a line: Drug concentration in C57BL/6J mouse plasma at 3 mg/kg, sc measured after 4 hrs by LC-MS/MS analysis. Type of data set: ADME, organism-based.
Data set [9] can be described thus: Drug concentration in C57BL/6J mouse plasma at 100 mg/kg, sc measured after 4 hrs by LC-MS/MS analysis. The format is ADME, organism-based.
Data set [10] can be described thus: Drug concentration in C57BL/6J mouse plasma at 3 mg/kg, sc measured after 1 hrs by LC-MS/MS analysis. Type of data set: ADME, organism-based.
A short description of data set [11]: Drug excretion in C57BL/6J mouse urine at 0.5 mg/kg, iv measured after 24 hrs by LC-MS/MS analysis. Type of data set: ADME, organism-based. The following applies: read-out: Drug excretion.
A short description of data set [12]: Total clearance in C57BL/6J mouse at 0.5 mg/kg, iv measured after 0.083 to 24 hrs by LC-MS/MS analysis. The format is ADME, organism-based. The following applies: in vivo, time 0.083-24 hrs.
A short description of data set [13]: Inhibition of bovine liver beta-glucuronidase. The format is tissue-based, Bos taurus.

As for `CO[C@H]1[C@H](O)[C@@H](O)c2nc(CCc3cccc(Oc4ccccc4)c3)cn2[C@@H]1C(=O)O`, the half-maximal inhibitory concentration (IC50) at Beta-glucuronidase was determined as 0.839 µM; in data set [1], 0.439 µM; on Heparanase, 0.442 µM. Besides, the concentration at 4 h in data set [2] was 1070 ng/mL; in [8], 191 ng/mL; in data set [9] it was 1880 ng/mL. Further, the results for the concentration at 1 h in data set [3], in data set [7] and in [10] were 9820 ng/mL, 24200 ng/mL and 1240 ng/mL, respectively. In addition, the fraction unbound at 4 h, 1 ug/ml in [4] was 0.045. Further, in data set [5], the Vd turned out to be 0.666 L/kg. In the data set with Mus musculus, the inhibition result was “Active”. In addition, the half-life in data set [6] was 2.1 h. Moreover, the dose excreted at 24 h in [11] worked out at 31.1%. Besides, the clearance in data set [12] was 5.83 mL/min/kg.

`O=C(O)[C@@H]1[C@@H](O)[C@H](O)[C@@H](O)c2nc(-c3ccc(Oc4ccccc4)cc3)cn21`: at Heparanase, the IC50 turned out to be 1.1 µM.

Turning to `CC(C)c1ccc(Oc2cccc(CCc3cn4c(n3)[C@H](O)[C@@H](O)[C@H](O)[C@H]4C(=O)O)c2)cc1`, the IC50 on Heparanase is 1.38 µM.

In the case of `O=C(O)[C@@H]1[C@@H](O)[C@H](O)[C@@H](O)c2nc(CCc3ccc(Oc4ccccc4)cc3)cn21`, the half-inhibitory concentration (IC50) at Heparanase is 0.586 µM.

With `COc1cccc(OC)c1Oc1cccc(CCc2cn3c(n2)[C@H](O)[C@@H](O)[C@H](O)[C@H]3C(=O)O)c1OC`, the IC50 at Heparanase came out at 9.95 µM.

Consider `O=C(O)[C@@H]1[C@@H](O)[C@H](O)[C@@H](O)c2nc(C3CCN(C(=O)c4ccccc4Oc4ccccc4)CC3)cn21`, for which, on Heparanase, the IC50 is 1.75 µM.

In turn, `O=C(O)[C@@H]1[C@@H](O)[C@H](O)[C@@H](O)c2nccn21` showed a Ki in [13] of 0.012 µM. This lies in the double-digit nanomolar range.

Turning to `O=C(O)[C@@H]1[C@@H](O)[C@H](O)[C@@H](O)c2nc(CCc3ccc(CCc4ccccc4)cc3)cn21`, on Heparanase, the concentration for half-maximal inhibition (IC50) amounted to 2 µM.

In the case of `O=C(O)[C@@H]1[C@@H](O)[C@H](O)[C@@H](O)c2nc(CCc3cccc(Oc4ccccc4)c3)cn21`, the results for the IC50 (on Beta-glucuronidase; in data set [1]; at Heparanase) were 0.008 µM, 0.053 µM and 0.467 µM, respectively. Further, the fraction unbound at 4 h, 1 ug/ml in [4] is 0.036. For the same compound, the Vd in [5] turned out to be 0.439 L/kg. This compound also had a half-life in [6] of 1.6 h. Besides, in data set [11], the dose excreted at 24 h stood at 44.2%. In [12], this compound had a clearance of 8.18 mL/min/kg.

Turning to `O=C(O)[C@@H]1[C@@H](O)[C@H](O)[C@@H](O)c2nc(CCc3ccc(S(=O)(=O)c4ccccc4)cc3)cn21`, the IC50 on Heparanase came out at 0.748 µM.

Consider `Cc1ccc(S(=O)(=O)Nc2ccc(CCc3cn4c(n3)[C@H](O)[C@@H](O)[C@H](O)[C@H]4C(=O)O)cc2)cc1`, for which, on Heparanase, the IC50 came to 1.34 µM.

Turning to `COc1c(CCc2cn3c(n2)[C@H](O)[C@@H](O)[C@H](O)[C@H]3C(=O)O)cccc1Oc1ccccc1`, the half-maximal inhibitory concentration (IC50) on Heparanase is 1.6 µM.
